Conditions: Liquid, Vibrating tube method

CCCCCCCCCC [decane]
Conditions	mass density [kg/m3]
313.15 K, 25586 kPa	734.5
313.15 K, 25902 kPa	734.7
313.15 K, 25935 kPa	734.7
313.15 K, 25969 kPa	734.6
313.15 K, 25993 kPa	734.9
313.15 K, 26027 kPa	734.7
313.15 K, 26065 kPa	734.7
313.15 K, 26104 kPa	734.9
313.15 K, 26144 kPa	735
313.15 K, 26173 kPa	734.9
313.15 K, 26208 kPa	734.9
313.15 K, 26233 kPa	734.9
313.15 K, 26272 kPa	735
313.15 K, 26306 kPa	735
313.15 K, 26341 kPa	735
313.15 K, 26370 kPa	735.1
313.15 K, 26410 kPa	735
313.15 K, 26440 kPa	735.2
313.15 K, 26475 kPa	735.2
313.15 K, 26510 kPa	735.1
313.15 K, 26557 kPa	735.1
313.15 K, 26582 kPa	735.1
313.15 K, 26614 kPa	735.3
313.15 K, 26655 kPa	735.3
313.15 K, 26690 kPa	735.2
313.15 K, 26722 kPa	735.3
313.15 K, 26763 kPa	735.3
313.15 K, 26799 kPa	735.4
313.15 K, 26842 kPa	735.3
313.15 K, 26874 kPa	735.3
313.15 K, 26911 kPa	735.5
313.15 K, 26941 kPa	735.5
313.15 K, 26969 kPa	735.5
313.15 K, 26998 kPa	735.6
313.15 K, 27035 kPa	735.4
313.15 K, 27058 kPa	735.5
313.15 K, 27874 kPa	736
313.15 K, 27972 kPa	736
313.15 K, 28011 kPa	736.2
313.15 K, 28036 kPa	736
313.15 K, 28071 kPa	736.1
313.15 K, 28101 kPa	736.2
313.15 K, 28131 kPa	736.2
313.15 K, 28162 kPa	736.3
313.15 K, 28202 kPa	736.3
313.15 K, 28237 kPa	736.3
313.15 K, 28272 kPa	736.3
313.15 K, 28297 kPa	736.3
313.15 K, 28327 kPa	736.3
313.15 K, 28372 kPa	736.4
313.15 K, 28403 kPa	736.4
313.15 K, 28449 kPa	736.5
313.15 K, 28480 kPa	736.5
313.15 K, 28515 kPa	736.4
313.15 K, 28542 kPa	736.5
313.15 K, 28578 kPa	736.5
313.15 K, 28619 kPa	736.5
313.15 K, 28645 kPa	736.5
313.15 K, 28692 kPa	736.6
313.15 K, 28723 kPa	736.7
313.15 K, 28750 kPa	736.7
313.15 K, 28791 kPa	736.7
313.15 K, 28828 kPa	736.6
313.15 K, 28860 kPa	736.8
313.15 K, 28902 kPa	736.7
313.15 K, 28945 kPa	736.8
313.15 K, 28971 kPa	736.8
313.15 K, 29019 kPa	736.8
313.15 K, 29061 kPa	736.9
313.15 K, 29168 kPa	737
313.15 K, 30647 kPa	737.9
313.15 K, 30676 kPa	738
313.15 K, 30710 kPa	737.9
313.15 K, 30738 kPa	738
313.15 K, 30777 kPa	738
313.15 K, 30816 kPa	738.1
313.15 K, 30856 kPa	738.1
313.15 K, 30889 kPa	738.1
313.15 K, 30929 kPa	738
313.15 K, 30974 kPa	738.1
313.15 K, 31089 kPa	738.2
313.15 K, 31432 kPa	738.4
313.15 K, 31467 kPa	738.4
313.15 K, 31515 kPa	738.4
313.15 K, 31562 kPa	738.5
313.15 K, 31610 kPa	738.4
313.15 K, 31646 kPa	738.6
313.15 K, 31694 kPa	738.6
313.15 K, 31736 kPa	738.6
313.15 K, 31766 kPa	738.4
313.15 K, 31815 kPa	738.6
313.15 K, 31856 kPa	738.6
313.15 K, 31901 kPa	738.7
313.15 K, 31947 kPa	738.7
313.15 K, 31981 kPa	738.7
313.15 K, 32023 kPa	738.8
313.15 K, 32070 kPa	738.8
313.15 K, 32100 kPa	738.9
313.15 K, 32135 kPa	738.9
313.15 K, 32176 kPa	738.9
313.15 K, 32213 kPa	738.9
313.15 K, 32253 kPa	738.9
313.15 K, 32294 kPa	738.9
313.15 K, 32345 kPa	739
313.15 K, 32379 kPa	739
313.15 K, 32413 kPa	739
313.15 K, 32459 kPa	739.1
313.15 K, 32491 kPa	739.1
313.15 K, 32528 kPa	739.1
313.15 K, 32561 kPa	739.1
313.15 K, 32592 kPa	739.3
313.15 K, 32633 kPa	739.1
313.15 K, 32666 kPa	739.2
313.15 K, 32704 kPa	739.3
313.15 K, 32737 kPa	739.3
313.15 K, 32770 kPa	739.3
313.16 K, 339 kPa	714.8
313.16 K, 365 kPa	714.9
313.16 K, 391 kPa	715
313.16 K, 423 kPa	715
313.16 K, 450 kPa	714.9
313.16 K, 478 kPa	715
313.16 K, 508 kPa	715
313.16 K, 548 kPa	715.1
313.16 K, 579 kPa	715.1
313.16 K, 595 kPa	715.2
313.16 K, 607 kPa	715.1
313.16 K, 620 kPa	715
313.16 K, 631 kPa	715.1
313.16 K, 651 kPa	715.2
313.16 K, 661 kPa	715.1
313.16 K, 673 kPa	715.3
313.16 K, 686 kPa	715.2
313.16 K, 699 kPa	715.2
313.16 K, 719 kPa	715.2
313.16 K, 733 kPa	715.2

Source: the NIST ThermoML archive (doi:10.1021/je800110r)
